Starred links: 1 amine or outer side, 2 acyl side, 3 side chain; linkers in the order of their positions; H or OH if unused. Positions of bridges follow the written chain, without caps; N, C: chain ends. Non-standard residues stand in square brackets, D forms with d. Residues, ends and D or L forms follow the SMILES beside them. Groups on a side chain read outwards from the residue. *: point of attachment. X21 = CC[C@H]1[C@@H](O)[C@@H]2[C@H](CC[C@]3(C)[C@@H]([C@H](C)CCC(=O)*)CC[C@@H]23)[C@@]2(C)CC[C@@H](O)C[C@@H]12; Cholesteryloxycarbonyl = CC(C)CCC[C@@H](C)[C@H]1CC[C@H]2[C@@H]3CC=C4C[C@@H](OC(=O)*)CC[C@]4(C)[C@H]3CC[C@]12C; Chenodeoxycholyl = C[C@H](CCC(=O)*)[C@H]1CC[C@H]2[C@@H]3[C@H](O)C[C@@H]4C[C@H](O)CC[C@]4(C)[C@H]3CC[C@]12C; Ursodeoxycholyl = C[C@H](CCC(=O)*)[C@H]1CC[C@H]2[C@@H]3[C@@H](O)C[C@@H]4C[C@H](O)CC[C@]4(C)[C@H]3CC[C@]12C; Cholyl = C[C@H](CCC(=O)*)[C@H]1CC[C@H]2[C@@H]3[C@H](O)C[C@@H]4C[C@H](O)CC[C@]4(C)[C@H]3C[C@H](O)[C@]12C; Lithocholoyl = C[C@H](CCC(=O)*)[C@H]1CC[C@H]2[C@@H]3CC[C@@H]4C[C@H](O)CC[C@]4(C)[C@H]3CC[C@]12C; Trp(1-CH2CO2Me) = COC(=O)Cn1cc(C[C@H](N)C(=O)O)c2ccccc21; X29 = CN(C)C(=O)Cn1cc(C[C@H](N[*:1])C(=O)[*:2])c2ccccc21; Trp(1-CH2COOH) = N[C@@H](Cc1cn(CC(=O)O)c2ccccc12)C(=O)O; Hyp = O=C(O)[C@@H]1C[C@@H](O)CN1; NMeNle = CCCC[C@H](NC)C(=O)O; NMeA = CN[C@@H](C)C(=O)O; Dab = NCC[C@H](N)C(=O)O; Dap = NC[C@H](N)C(=O)O
The compounds below were run against T1, PD-1/PD-L1 (Homo sapiens, UniProt Q9NZQ7) (assay: PD-1/PD-L1 Homogenous Time-Resolved Fluorescence (HTRF) binding assay). Settings: HTRF IC50, PD-L1-His 10 nM, PD-1-Ig 20 nM.
T1 construct: TVMV protease site (C); made in house; host or cells: HEK293T cells
T1 sequence (Q9NZQ7 18-239): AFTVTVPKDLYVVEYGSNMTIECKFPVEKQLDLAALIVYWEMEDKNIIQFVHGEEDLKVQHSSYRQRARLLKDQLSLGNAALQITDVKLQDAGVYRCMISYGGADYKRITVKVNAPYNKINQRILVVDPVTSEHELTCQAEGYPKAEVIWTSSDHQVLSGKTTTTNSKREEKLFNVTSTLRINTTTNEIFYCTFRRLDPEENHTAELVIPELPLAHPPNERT
Description: The ability of the compounds of formula (I) to bind to PD-L1 was investigated using a PD-1/PD-L1 Homogenous Time-Resolved Fluorescence (HTRF) binding assay.
The interaction of PD-1 and PD-L1 can be assessed using soluble, purified preparations of the extracellular domains of the two proteins. The PD-1 and PD-L1 protein extracellular domains were expressed as fusion proteins with detection tags, for PD-1, the tag was the Fc portion of Immunoglobulin (PD-1-Ig) and for PD-L1 it was the 6 histidine motif (PD-L1-His). All binding studies were performed in an HTRF assay buffer consisting of dPBS supplemented with 0.1% […] bovine serum albumin and 0.05% (v/v) Tween-20. For the h/PD-L1-His binding assay, inhibitors were pre-incubated with PD-L1-His (10 nM final) for 15 m in 4 μl of assay buffer, followed by addition of PD-1-Ig (20 nM final) in 1 μl of assay buffer and further incubation for 15 m. HTRF detection was achieved using europium crypate-labeled anti-Ig (1 nM final) and allophycocyanin (APC) labeled anti-His (20 nM final). Antibodies were diluted in HTRF detection buffer and 5 μl was dispensed on top of the binding reaction. The reaction mixture was allowed to equilibrate for 30 minutes and the resulting signal (665 nm/620 nm ratio) was obtained using an EnVision fluorometer. Additional binding assays were established between the human proteins PD-1-Ig/PD-L2-His (20 & 5 nM, respectively) and CD80-His/PD-L1-Ig (100 & 10 nM, respectively).
Recombinant Proteins: Human PD-1 (25-167) with a C-terminal human Fc domain of immunoglobulin G (Ig) epitope tag [hPD-1 (25-167)-3S-IG] and human PD-L1 (18-239) with a C-terminal His epitope tag [hPD-L1(18-239)-TVMV-His] were expressed in HEK293T cells and purified sequentially by ProteinA affinity chromatography and size exclusion chromatography. Human PD-L2-His and CD80-His was obtained through commercial sources.
Table 1 lists the IC50 values for representative examples of this disclosure measured in the PD-1/PD-L1 Homogenous Time-Resolved Fluorescence (HTRF) binding assay.

Structure (SMILES)	IC50
CCCC[C@H]1C(=O)N(C)[C@@H](CCCC)C(=O)N[C@@H](CC(C)C)C(=O)N[C@H](C(=O)NCC(N)=O)CSCC(=O)N[C@@H](Cc2ccc(O)cc2)C(=O)N(C)[C@@H](C)C(=O)N[C@@H](CC(N)=O)C(=O)N2CCC[C@H]2C(=O)N[C@@H](CNC(=O)O[C@H]2CC[C@@]3(C)C(=CC[C@H]4[C@@H]5CC[C@H]([C@H](C)CCCC(C)C)[C@@]5(C)CC[C@@H]43)C2)C(=O)N[C@@H](CC(C)C)C(=O)N2C[C@H](O)C[C@H]2C(=O)N[C@@H](Cc2c[nH]c3ccccc23)C(=O)N[C@@H](CCN)C(=O)N[C@@H](Cc2cn(CC(=O)O)c3ccccc23)C(=O)N1C [Example 1012] ({CH2CO}-Y[NMeA]NP[Dap](Cholesteryloxycarbonyl)L[Hyp]W[Dab][Trp(1-CH2COOH)][NMeNle][NMeNle]LCG-NH2; thioether N-14)	130 nM

Same assay, conditions: PD-L1-His 10 nM, PD-1-Ig 20 nM; read-out: HTRF IC50

Structure (SMILES)	IC50
CCCC[C@H]1C(=O)N(C)[C@@H](CCCC)C(=O)N[C@@H](CC(C)C)C(=O)N[C@H](C(=O)NCC(N)=O)CSCC(=O)N[C@@H](Cc2ccc(O)cc2)C(=O)N(C)[C@@H](C)C(=O)N[C@@H](CC(N)=O)C(=O)N2CCC[C@H]2C(=O)N[C@@H](CNC(=O)CC[C@@H](C)[C@H]2CC[C@H]3[C@@H]4[C@H](O)C[C@@H]5C[C@H](O)CC[C@]5(C)[C@H]4CC[C@]23C)C(=O)N[C@@H](CC(C)C)C(=O)N2C[C@H](O)C[C@H]2C(=O)N[C@@H](Cc2c[nH]c3ccccc23)C(=O)N[C@@H](CCNC(=O)CC[C@@H](C)[C@H]2CC[C@H]3[C@@H]4[C@H](O)C[C@@H]5C[C@H](O)CC[C@]5(C)[C@H]4CC[C@]23C)C(=O)N[C@@H](Cc2cn(CC(=O)OC)c3ccccc23)C(=O)N1C [Example 1005] ({CH2CO}-Y[NMeA]NP[Dap](Chenodeoxycholyl)L[Hyp]W[Dab](Chenodeoxycholyl)[Trp(1-CH2CO2Me)][NMeNle][NMeNle]LCG-NH2; thioether N-14)	8400 nM
CCCC[C@H]1C(=O)N(C)[C@@H](CCCC)C(=O)N[C@@H](CC(C)C)C(=O)N[C@H](C(=O)NCC(N)=O)CSCC(=O)N[C@@H](Cc2ccc(O)cc2)C(=O)N(C)[C@@H](C)C(=O)N[C@@H](CC(N)=O)C(=O)N2CCC[C@H]2C(=O)N[C@@H](CNC(=O)CC[C@@H](C)[C@H]2CC[C@H]3[C@@H]4[C@@H](O)C[C@@H]5C[C@H](O)CC[C@]5(C)[C@H]4CC[C@]23C)C(=O)N[C@@H](CC(C)C)C(=O)N2C[C@H](O)C[C@H]2C(=O)N[C@@H](Cc2c[nH]c3ccccc23)C(=O)N[C@@H](CCNC(=O)CC[C@@H](C)[C@H]2CC[C@H]3[C@@H]4[C@@H](O)C[C@@H]5C[C@H](O)CC[C@]5(C)[C@H]4CC[C@]23C)C(=O)N[C@@H](Cc2cn(CC(=O)OC)c3ccccc23)C(=O)N1C [Example 1006] ({CH2CO}-Y[NMeA]NP[Dap](Ursodeoxycholyl)L[Hyp]W[Dab](Ursodeoxycholyl)[Trp(1-CH2CO2Me)][NMeNle][NMeNle]LCG-NH2; thioether N-14)	> 10000 nM
CCCC[C@H]1C(=O)N(C)[C@@H](CCCC)C(=O)N[C@@H](CC(C)C)C(=O)N[C@H](C(=O)NCC(N)=O)CSCC(=O)N[C@@H](Cc2ccc(O)cc2)C(=O)N(C)[C@@H](C)C(=O)N[C@@H](CC(N)=O)C(=O)N2CCC[C@H]2C(=O)N[C@@H](CNC(=O)CC[C@@H](C)[C@H]2CC[C@H]3[C@@H]4[C@H](O)C[C@@H]5C[C@H](O)CC[C@]5(C)[C@H]4C[C@H](O)[C@]23C)C(=O)N[C@@H](CC(C)C)C(=O)N2C[C@H](O)C[C@H]2C(=O)N[C@@H](Cc2c[nH]c3ccccc23)C(=O)N[C@@H](CCN)C(=O)N[C@@H](Cc2cn(CC(=O)OC)c3ccccc23)C(=O)N1C [Example 1007] ({CH2CO}-Y[NMeA]NP[Dap](Cholyl)L[Hyp]W[Dab][Trp(1-CH2CO2Me)][NMeNle][NMeNle]LCG-NH2; thioether N-14)	6.8 nM
CCCC[C@H]1C(=O)N(C)[C@@H](CCCC)C(=O)N[C@@H](CC(C)C)C(=O)N[C@H](C(=O)NCC(N)=O)CSCC(=O)N[C@@H](Cc2ccc(O)cc2)C(=O)N(C)[C@@H](C)C(=O)N[C@@H](CC(N)=O)C(=O)N2CCC[C@H]2C(=O)N[C@@H](CNC(=O)CNC(=O)CC[C@@H](C)[C@H]2CC[C@H]3[C@@H]4[C@H](O)C[C@@H]5C[C@H](O)CC[C@]5(C)[C@H]4C[C@H](O)[C@]23C)C(=O)N[C@@H](CC(C)C)C(=O)N2C[C@H](O)C[C@H]2C(=O)N[C@@H](Cc2c[nH]c3ccccc23)C(=O)N[C@@H](CCN)C(=O)N[C@@H](Cc2cn(CC(=O)N(C)C)c3ccccc23)C(=O)N1C [Example 1008] ({CH2CO}-Y[NMeA]NP[Dap]([Gly-Cholyl])L[Hyp]W[Dab][X29][NMeNle][NMeNle]LCG-NH2; thioether N-14)	14 nM
CCCC[C@H]1C(=O)N(C)[C@@H](CCCC)C(=O)N[C@@H](CC(C)C)C(=O)N[C@H](C(=O)NCC(N)=O)CSCC(=O)N[C@@H](Cc2ccc(O)cc2)C(=O)N(C)[C@@H](C)C(=O)N[C@@H](CC(N)=O)C(=O)N2CCC[C@H]2C(=O)N[C@@H](CNC(=O)CC[C@@H](C)[C@H]2CC[C@H]3[C@@H]4CC[C@@H]5C[C@H](O)CC[C@]5(C)[C@H]4CC[C@]23C)C(=O)N[C@@H](CC(C)C)C(=O)N2C[C@H](O)C[C@H]2C(=O)N[C@@H](Cc2c[nH]c3ccccc23)C(=O)N[C@@H](CCN)C(=O)N[C@@H](Cc2cn(CC(=O)O)c3ccccc23)C(=O)N1C [Example 1009] ({CH2CO}-Y[NMeA]NP[Dap](Lithocholoyl)L[Hyp]W[Dab][Trp(1-CH2COOH)][NMeNle][NMeNle]LCG-NH2; thioether N-14)	17 nM
CCCC[C@H]1C(=O)N(C)[C@@H](CCCC)C(=O)N[C@@H](CC(C)C)C(=O)N[C@H](C(=O)NCC(N)=O)CSCC(=O)N[C@@H](Cc2ccc(O)cc2)C(=O)N(C)[C@@H](C)C(=O)N[C@@H](CC(N)=O)C(=O)N2CCC[C@H]2C(=O)N[C@@H](CNC(=O)CC[C@@H](C)[C@H]2CC[C@H]3[C@@H]4[C@H](O)C[C@@H]5C[C@H](O)CC[C@]5(C)[C@H]4C[C@H](O)[C@]23C)C(=O)N[C@@H](CC(C)C)C(=O)N2C[C@H](O)C[C@H]2C(=O)N[C@@H](Cc2c[nH]c3ccccc23)C(=O)N[C@@H](CCN)C(=O)N[C@@H](Cc2cn(CC(=O)OC)c3ccccc23)C(=O)N1C [Example 1011] ({CH2CO}-Y[NMeA]NP[Dap](Cholyl)L[Hyp]W[Dab][Trp(1-CH2CO2Me)][NMeNle][NMeNle]LCG-NH2; thioether N-14)	6.3 nM
CCCC[C@H]1C(=O)N(C)[C@@H](CCCC)C(=O)N[C@@H](CC(C)C)C(=O)N[C@H](C(=O)NCC(N)=O)CSCC(=O)N[C@@H](Cc2ccc(O)cc2)C(=O)N(C)[C@@H](C)C(=O)N[C@@H](CC(N)=O)C(=O)N2CCC[C@H]2C(=O)N[C@@H](CNC(=O)CC[C@@H](C)[C@H]2CC[C@H]3[C@@H]4[C@H](O)C[C@@H]5C[C@H](O)CC[C@]5(C)[C@H]4CC[C@]23C)C(=O)N[C@@H](CC(C)C)C(=O)N2C[C@H](O)C[C@H]2C(=O)N[C@@H](Cc2c[nH]c3ccccc23)C(=O)N[C@@H](CCNC(=O)CC[C@@H](C)[C@H]2CC[C@H]3[C@@H]4[C@H](O)C[C@@H]5C[C@H](O)CC[C@]5(C)[C@H]4CC[C@]23C)C(=O)N[C@@H](Cc2cn(CC(=O)O)c3ccccc23)C(=O)N1C [Example 1013] ({CH2CO}-Y[NMeA]NP[Dap](Chenodeoxycholyl)L[Hyp]W[Dab](Chenodeoxycholyl)[Trp(1-CH2COOH)][NMeNle][NMeNle]LCG-NH2; thioether N-14)	460 nM
CCCC[C@H]1C(=O)N(C)[C@@H](CCCC)C(=O)N[C@@H](CC(C)C)C(=O)N[C@H](C(=O)NCC(N)=O)CSCC(=O)N[C@@H](Cc2ccc(O)cc2)C(=O)N(C)[C@@H](C)C(=O)N[C@@H](CC(N)=O)C(=O)N2CCC[C@H]2C(=O)N[C@@H](CNC(=O)CC[C@@H](C)[C@H]2CC[C@H]3[C@@H]4[C@H](O)[C@H](CC)[C@@H]5C[C@H](O)CC[C@]5(C)[C@H]4CC[C@]23C)C(=O)N[C@@H](CC(C)C)C(=O)N2C[C@H](O)C[C@H]2C(=O)N[C@@H](Cc2c[nH]c3ccccc23)C(=O)N[C@@H](CCNC(=O)CC[C@@H](C)[C@H]2CC[C@H]3[C@@H]4[C@H](O)[C@H](CC)[C@@H]5C[C@H](O)CC[C@]5(C)[C@H]4CC[C@]23C)C(=O)N[C@@H](Cc2cn(CC(=O)O)c3ccccc23)C(=O)N1C [Example 1014] ({CH2CO}-Y[NMeA]NP[Dap](X21)L[Hyp]W[Dab](X21)[Trp(1-CH2COOH)][NMeNle][NMeNle]LCG-NH2; thioether N-14)	340 nM

Reference: patent US20230183292A1, “IMMUNOMODULATORS” (priority 2020, published 2023)
